According to PubChem BioAssay (NCI):
Where “and” joins values, the source holds several entries; their conditions need not be identical. Identical values can stand only once.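 Tested at 5 concentrations; 48 h exposure; 96-well plates; endpoints linearly interpolated, else capped at highest concentration. GI50 = concentration required for 50% inhibition of growth. TGI marks complete inhibition of growth.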 Where a SMILES comes first, the peptide text is derived from it. [ ]: non-standard residue; d: D form. The star is where a group is joined. ξ: configuration not given here. X16 = COC1=CC(=O)N(C(=O)C(O*)C(C)C)C1Cc1ccccc1; ξNMe2Val = CC(C)C(C(=O)*)N(C)C; NMeV = CN[CH](C(=O)O)C(C)C

Key:
Experiment in all cases: DTP human tumour cell line panel, 48 h
OVCAR-4 ovarian = tested on: OVCAR-4 ovarian
A498 renal = tested on: A498 renal
U251 CNS = tested on: U251 CNS
HCT-116 colon = tested on: HCT-116 colon
A549 NSCLC = tested on: A549 NSCLC
HCC-2998 colon = tested on: HCC-2998 colon
M14 melanoma = tested on: M14 melanoma
NCI-H522 lung = tested on: NCI-H522 lung
SNB-19 CNS = tested on: SNB-19 CNS
DLD-1 colon = tested on: DLD-1 colon

Structure (SMILES): COc1ccc2c(O)c3[n+](cc2c1OC)CCc1cc2c(cc1-3)OCO2
- TGI (OVCAR-4 ovarian): > 100 µM
- TGI (A498 renal): > 100 µM
- TGI (U251 CNS): > 100 µM
- TGI (HCT-116 colon): > 100 µM
- TGI (A549 NSCLC): > 100 µM
- TGI (HCC-2998 colon): > 100 µM
- TGI (M14 melanoma): > 100 µM
- TGI (NCI-H522 lung): 46 µM
- TGI (SNB-19 CNS): > 100 µM

Structure (SMILES): COc1ccc(C(=O)C2CC3(CCC2(O)c2ccc(OC)cc2)CC(=O)Nc2ccccc2C3=O)cc1 (stereo unspecified)
- TGI (OVCAR-4 ovarian): 39.9 µM
- TGI (A498 renal): > 100 µM
- TGI (U251 CNS): > 100 µM
- TGI (HCT-116 colon): > 100 µM
- TGI (A549 NSCLC): > 100 µM
- TGI (HCC-2998 colon): > 100 µM
- TGI (M14 melanoma): > 100 µM

Structure (SMILES): OCC(O)COc1ccc(Br)cc1 (stereo unspecified)
- TGI (OVCAR-4 ovarian): > 100 µM
- TGI (A498 renal): > 100 µM
- TGI (U251 CNS): > 100 µM
- TGI (HCT-116 colon): > 100 µM
- TGI (DLD-1 colon): > 100 µM
- TGI (A549 NSCLC): > 100 µM
- TGI (HCC-2998 colon): > 100 µM
- TGI (M14 melanoma): > 100 µM
- TGI (NCI-H522 lung): > 100 µM
- TGI (SNB-19 CNS): > 100 µM

Structure (SMILES): Nc1cc2c(cc1[N+](=O)[O-])[nH]c1c(-c3ccccc3)nccc12
- TGI (OVCAR-4 ovarian): 50.6 µM
- TGI (A498 renal): 79.7 µM
- TGI (U251 CNS): 55.4 µM
- TGI (HCT-116 colon): 36 µM
- TGI (DLD-1 colon): > 76.5 µM
- TGI (A549 NSCLC): 69.6 µM
- TGI (HCC-2998 colon): 31.5 µM
- TGI (NCI-H522 lung): 27.5 µM
- TGI (SNB-19 CNS): 76.7 µM

Structure (SMILES): COC1=CC(=O)N(C(=O)C(OC(=O)C2CCCN2C(=O)C2CCCN2C(=O)C(C(C)C)N(C)C(=O)C(NC(=O)C(C(C)C)N(C)C)C(C)C)C(C)C)C1Cc1ccccc1 (stereo unspecified) (ξNMe2Val-V[NMeV]PP-X16; configuration not given here)
- GI50 (OVCAR-4 ovarian): 0.663 µM
- TGI (OVCAR-4 ovarian): > 4 µM
- GI50 (A498 renal): 0.00643 µM
- TGI (A498 renal): 0.165 µM
- GI50 (U251 CNS): < 0.0004 µM
- TGI (U251 CNS): 0.0109 µM
- GI50 (DLD-1 colon): < 0.0004 µM
- TGI (DLD-1 colon): > 4 µM
- GI50 (A549 NSCLC): 0.00715 µM
- TGI (A549 NSCLC): > 4 µM
- GI50 (HCC-2998 colon): < 0.0004 µM
- TGI (NCI-H522 lung): 0.00182 µM
- GI50 (SNB-19 CNS): 0.00267 µM
- TGI (SNB-19 CNS): 0.118 µM

Structure (SMILES): Cc1ccc(N=Nc2c(O)c3ccccc3[nH]c2=O)c(S(=O)(=O)N(C)C)c1
- TGI (OVCAR-4 ovarian): > 100 µM
- TGI (A498 renal): > 100 µM
- TGI (U251 CNS): > 100 µM
- TGI (HCT-116 colon): > 100 µM
- TGI (A549 NSCLC): > 100 µM
- TGI (M14 melanoma): > 100 µM
- TGI (NCI-H522 lung): > 100 µM
- TGI (SNB-19 CNS): > 100 µM

Structure (SMILES): Cc1ccc(OP2(=O)Oc3ccc4ccccc4c3CN2c2ccc(Cl)cc2)cc1C (stereo unspecified)
- TGI (OVCAR-4 ovarian): > 100 µM
- TGI (A498 renal): > 100 µM
- TGI (U251 CNS): > 100 µM
- TGI (HCT-116 colon): > 100 µM
- TGI (DLD-1 colon): > 100 µM
- TGI (A549 NSCLC): > 100 µM
- TGI (HCC-2998 colon): > 100 µM
- TGI (NCI-H522 lung): > 100 µM
- TGI (SNB-19 CNS): > 100 µM

Structure (SMILES): O=C(NCc1cn(Cc2cccc(Oc3ccccc3)c2)nn1)c1cccnc1Nc1ccccc1
- GI50 (OVCAR-4 ovarian): 5.42 µM
- TGI (OVCAR-4 ovarian): > 100 µM
- GI50 (A498 renal): 1.88 µM
- TGI (A498 renal): 8.19 µM
- GI50 (U251 CNS): 3.61 µM
- TGI (U251 CNS): 18.9 µM
- GI50 (HCT-116 colon): 3.4 µM
- TGI (HCT-116 colon): 23.5 µM
- GI50 (A549 NSCLC): 4.81 µM
- TGI (A549 NSCLC): 95.2 µM
- GI50 (HCC-2998 colon): 3.7 µM
- TGI (HCC-2998 colon): 21.8 µM
- GI50 (M14 melanoma): 2.86 µM
- TGI (M14 melanoma): 9.86 µM
- GI50 (NCI-H522 lung): 2.11 µM
- TGI (NCI-H522 lung): 5.06 µM
- GI50 (SNB-19 CNS): 3.27 µM
- TGI (SNB-19 CNS): > 100 µM

Structure (SMILES): CCOc1ncn(-c2ccc(NC(=S)Nc3cccc(O)c3)cc2)n1
- TGI (OVCAR-4 ovarian): > 100 µM
- TGI (U251 CNS): > 100 µM
- TGI (HCT-116 colon): > 100 µM
- TGI (A549 NSCLC): > 100 µM
- TGI (HCC-2998 colon): > 100 µM
- TGI (M14 melanoma): > 100 µM
- TGI (NCI-H522 lung): > 100 µM
- TGI (SNB-19 CNS): > 100 µM

Structure (SMILES): COC[C@H]1C(=O)NCC(=O)N2NCCC[C@H]2C(=O)N(O)[C@H](C)C(=O)O[C@@H](C(C)C)[C@H](NC(=O)[C@](C)(O)[C@]2(O)CC[C@@H](CC(C)C)[C@H](C)O2)C(=O)N2NCCC[C@@H]2C(=O)N1O
- GI50 (U251 CNS): < 0.01 µM
- TGI (U251 CNS): 0.0216 µM
- GI50 (A549 NSCLC): < 0.0128 µM
- TGI (A549 NSCLC): 0.028 µM
- GI50 (NCI-H522 lung): 0.0171 µM
- TGI (NCI-H522 lung): 0.0377 µM

Structure (SMILES): CO/C(=N\N=C(/C)C(F)(F)F)c1ccncc1
- TGI (OVCAR-4 ovarian): > 100 µM
- TGI (A498 renal): > 100 µM
- TGI (U251 CNS): > 100 µM
- TGI (HCT-116 colon): > 100 µM
- TGI (M14 melanoma): > 100 µM
- TGI (NCI-H522 lung): > 100 µM
- TGI (SNB-19 CNS): > 100 µM

Structure (SMILES): CC1(C)CCc2c(cc3c(c2O)CCC(C)(C)O3)O1
- TGI (OVCAR-4 ovarian): > 100 µM
- TGI (A498 renal): > 100 µM
- TGI (U251 CNS): > 100 µM
- TGI (HCT-116 colon): > 100 µM
- TGI (A549 NSCLC): > 100 µM
- TGI (HCC-2998 colon): > 100 µM
- TGI (M14 melanoma): > 100 µM
- TGI (NCI-H522 lung): > 100 µM
- TGI (SNB-19 CNS): > 100 µM

Structure (SMILES): C=C1CC2CC[C@@]34C[C@@H]5O[C@@H]6C(O[C@H]7CC[C@H](CC(=O)OC8[C@@H](C)C9OC%10C[C@]%11(C[C@@H]%12O[C@@]%13(C[C@@H](C)[C@@H]%12O%11)C[C@H](C)[C@@H]%11OC%12CC(C(O)CO)OC%12C[C@@H]%11O%13)OC%10CC9O[C@H]8C[C@H]8O[C@@H](CC[C@@H]1O2)C[C@@H](C)C8=C)O[C@@H]7[C@@H]6O3)C5O4 (stereo partly specified)
- GI50 (OVCAR-4 ovarian): > 1.48 µM
- TGI (OVCAR-4 ovarian): > 1.48 µM
- GI50 (A498 renal): < 0.000148 µM
- TGI (A498 renal): 0.0167 µM
- GI50 (U251 CNS): < 0.000148 µM
- TGI (U251 CNS): 0.000191 µM
- GI50 (HCT-116 colon): < 0.000148 µM
- TGI (HCT-116 colon): 0.00327 µM
- GI50 (DLD-1 colon): < 0.000148 µM
- TGI (DLD-1 colon): > 1.48 µM
- GI50 (A549 NSCLC): < 0.000148 µM
- TGI (A549 NSCLC): > 1.48 µM
- TGI (HCC-2998 colon): 0.00865 µM
- TGI (M14 melanoma): 0.00675 µM
- GI50 (NCI-H522 lung): < 0.000148 µM
- TGI (NCI-H522 lung): 0.000594 µM and < 0.000148 µM
- GI50 (SNB-19 CNS): < 0.000148 µM
- TGI (SNB-19 CNS): 0.0127 µM

Structure (SMILES): C=C/C(C)=C/[C@H](C)C(=O)C[C@H](O)CC1CC(=O)NC(=O)C1
- TGI (OVCAR-4 ovarian): > 100 µM
- TGI (A498 renal): > 100 µM
- TGI (U251 CNS): > 100 µM
- TGI (HCT-116 colon): > 100 µM
- TGI (DLD-1 colon): > 100 µM
- TGI (A549 NSCLC): > 100 µM
- TGI (HCC-2998 colon): > 100 µM
- TGI (NCI-H522 lung): > 87.8 µM
- TGI (SNB-19 CNS): > 94.7 µM
